What all share (assay type): biochemical
Common to all, as to details: 100 micromolar inhibitor concentration, 100 is no change

The target of one assay is MST3 (Homo sapiens, UniProt Q9Y6E0). Kind of assay: Kinase profiling MST3. An excerpt: (§1) Any value less that 25 is considered to be highly significant inhibition.
For another assay, the target named is EPH-A4 (Homo sapiens, UniProt P54764). In words: Kinase profiling EPH-A4.
Excerpt: as §1

For another assay, the target named is PIM2 (Homo sapiens, UniProt Q9P1W9). In words: Kinase profiling PIM2.
PIM2, sequence (Q9P1W9 whole entry, species assumed): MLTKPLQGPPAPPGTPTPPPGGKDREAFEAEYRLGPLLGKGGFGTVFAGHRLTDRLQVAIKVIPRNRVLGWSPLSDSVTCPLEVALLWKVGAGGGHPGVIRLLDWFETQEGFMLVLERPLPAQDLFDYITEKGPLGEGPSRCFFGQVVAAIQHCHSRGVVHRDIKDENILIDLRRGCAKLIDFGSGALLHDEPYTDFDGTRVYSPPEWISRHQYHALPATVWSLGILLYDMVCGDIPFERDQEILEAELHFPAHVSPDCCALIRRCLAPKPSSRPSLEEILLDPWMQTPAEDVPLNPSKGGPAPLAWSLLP
Excerpt: as §1

For the next assay, the target named is T1, DDR2 (Homo sapiens, UniProt Q16832).
T1 sequence (Q16832 22-855): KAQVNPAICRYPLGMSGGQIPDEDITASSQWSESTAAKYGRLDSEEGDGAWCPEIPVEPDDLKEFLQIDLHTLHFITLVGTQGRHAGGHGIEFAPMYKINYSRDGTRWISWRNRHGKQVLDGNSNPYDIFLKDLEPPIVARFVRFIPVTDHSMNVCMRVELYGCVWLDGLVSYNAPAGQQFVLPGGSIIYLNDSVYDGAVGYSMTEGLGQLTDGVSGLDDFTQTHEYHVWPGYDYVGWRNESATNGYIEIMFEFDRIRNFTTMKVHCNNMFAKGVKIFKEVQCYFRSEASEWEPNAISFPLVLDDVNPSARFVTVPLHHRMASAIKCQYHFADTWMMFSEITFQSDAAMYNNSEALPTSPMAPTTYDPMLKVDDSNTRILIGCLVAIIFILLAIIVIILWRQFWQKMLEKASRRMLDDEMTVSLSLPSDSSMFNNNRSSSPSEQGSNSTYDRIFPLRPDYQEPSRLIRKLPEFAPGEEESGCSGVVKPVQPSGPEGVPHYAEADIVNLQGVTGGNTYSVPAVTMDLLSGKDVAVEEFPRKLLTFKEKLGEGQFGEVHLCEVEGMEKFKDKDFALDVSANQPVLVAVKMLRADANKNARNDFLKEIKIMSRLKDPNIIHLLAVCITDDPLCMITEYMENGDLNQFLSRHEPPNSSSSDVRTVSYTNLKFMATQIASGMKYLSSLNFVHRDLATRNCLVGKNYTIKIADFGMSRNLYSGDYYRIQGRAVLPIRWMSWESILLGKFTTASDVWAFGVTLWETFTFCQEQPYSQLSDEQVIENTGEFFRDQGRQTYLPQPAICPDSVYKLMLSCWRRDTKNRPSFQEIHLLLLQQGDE
In words: Kinase profiling DDR2.
Excerpt: as §1

In another assay the target is ABL (Homo sapiens, UniProt P00519). Kind of assay: Kinase profiling ABL.
Excerpt: as §1

Another assay concerns the target PAK6 (Homo sapiens, UniProt Q9NQU5). Kind of assay: Kinase profiling PAK6.
Excerpt: as §1

The next assay deals with T2, TLK1 (Homo sapiens, UniProt Q9UKI8).
T2 sequence (Q9UKI8 1-766): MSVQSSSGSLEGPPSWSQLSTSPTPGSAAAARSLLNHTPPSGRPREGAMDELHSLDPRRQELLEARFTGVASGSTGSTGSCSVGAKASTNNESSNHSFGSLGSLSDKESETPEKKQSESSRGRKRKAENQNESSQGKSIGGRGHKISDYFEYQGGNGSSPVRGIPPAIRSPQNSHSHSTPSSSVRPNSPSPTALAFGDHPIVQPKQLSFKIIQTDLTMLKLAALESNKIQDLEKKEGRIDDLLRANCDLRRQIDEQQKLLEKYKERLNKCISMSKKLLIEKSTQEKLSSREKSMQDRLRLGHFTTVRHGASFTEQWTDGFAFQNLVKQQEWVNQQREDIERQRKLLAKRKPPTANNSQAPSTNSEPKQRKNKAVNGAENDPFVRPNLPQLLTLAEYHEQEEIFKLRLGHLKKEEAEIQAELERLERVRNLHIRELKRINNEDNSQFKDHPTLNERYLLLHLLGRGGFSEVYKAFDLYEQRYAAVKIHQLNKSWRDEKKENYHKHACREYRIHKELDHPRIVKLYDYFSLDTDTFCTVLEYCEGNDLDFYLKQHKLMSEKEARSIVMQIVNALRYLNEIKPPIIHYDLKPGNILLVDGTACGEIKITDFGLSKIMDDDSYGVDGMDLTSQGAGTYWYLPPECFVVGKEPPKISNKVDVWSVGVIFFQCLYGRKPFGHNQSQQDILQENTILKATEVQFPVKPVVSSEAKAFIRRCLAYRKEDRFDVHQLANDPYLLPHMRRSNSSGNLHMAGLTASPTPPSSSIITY
Kind of assay: Kinase profiling TLK1.
Excerpt: as §1

A further assay has as its target MST4 (Homo sapiens, UniProt Q9P289). Kind of assay: Kinase profiling MST4.
Excerpt: as §1

The next assay concerns the target TTBK2 (Homo sapiens, UniProt Q6IQ55). Kind of assay: Kinase profiling TTBK2.
Excerpt: as §1

For the next assay, the target named is CDK2-Cyclin A (Homo sapiens, UniProt P24941). In words: Kinase profiling CDK2-Cyclin A.
Excerpt: as §1

The next assay has as its target T3, NUAK1 (Homo sapiens, UniProt O60285).
T3 sequence (O60285 1-661): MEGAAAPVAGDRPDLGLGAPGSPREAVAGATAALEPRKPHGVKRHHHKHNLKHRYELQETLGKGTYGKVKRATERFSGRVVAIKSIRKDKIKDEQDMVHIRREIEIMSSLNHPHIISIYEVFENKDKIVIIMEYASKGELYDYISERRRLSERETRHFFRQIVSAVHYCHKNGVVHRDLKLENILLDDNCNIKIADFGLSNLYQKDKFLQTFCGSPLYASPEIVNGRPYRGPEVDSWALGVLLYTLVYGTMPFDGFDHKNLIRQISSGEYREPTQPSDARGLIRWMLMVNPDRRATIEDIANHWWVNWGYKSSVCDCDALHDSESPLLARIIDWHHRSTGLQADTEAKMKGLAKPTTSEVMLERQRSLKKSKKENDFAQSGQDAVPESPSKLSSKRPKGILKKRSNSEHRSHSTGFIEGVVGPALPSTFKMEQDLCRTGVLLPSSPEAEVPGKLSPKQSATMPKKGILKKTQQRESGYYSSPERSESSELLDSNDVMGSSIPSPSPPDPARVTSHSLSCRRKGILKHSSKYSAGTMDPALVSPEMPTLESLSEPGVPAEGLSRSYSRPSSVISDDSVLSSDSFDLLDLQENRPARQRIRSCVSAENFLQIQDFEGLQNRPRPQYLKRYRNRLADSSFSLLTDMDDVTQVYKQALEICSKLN
Kind of assay: Kinase profiling NUAK1.
Excerpt: as §1

For the next assay, the target named is MAP4K5 (Homo sapiens, UniProt Q9Y4K4). Kind of assay: Kinase profiling MAP4K5.
MAP4K5, sequence (Q9Y4K4 whole entry, species assumed): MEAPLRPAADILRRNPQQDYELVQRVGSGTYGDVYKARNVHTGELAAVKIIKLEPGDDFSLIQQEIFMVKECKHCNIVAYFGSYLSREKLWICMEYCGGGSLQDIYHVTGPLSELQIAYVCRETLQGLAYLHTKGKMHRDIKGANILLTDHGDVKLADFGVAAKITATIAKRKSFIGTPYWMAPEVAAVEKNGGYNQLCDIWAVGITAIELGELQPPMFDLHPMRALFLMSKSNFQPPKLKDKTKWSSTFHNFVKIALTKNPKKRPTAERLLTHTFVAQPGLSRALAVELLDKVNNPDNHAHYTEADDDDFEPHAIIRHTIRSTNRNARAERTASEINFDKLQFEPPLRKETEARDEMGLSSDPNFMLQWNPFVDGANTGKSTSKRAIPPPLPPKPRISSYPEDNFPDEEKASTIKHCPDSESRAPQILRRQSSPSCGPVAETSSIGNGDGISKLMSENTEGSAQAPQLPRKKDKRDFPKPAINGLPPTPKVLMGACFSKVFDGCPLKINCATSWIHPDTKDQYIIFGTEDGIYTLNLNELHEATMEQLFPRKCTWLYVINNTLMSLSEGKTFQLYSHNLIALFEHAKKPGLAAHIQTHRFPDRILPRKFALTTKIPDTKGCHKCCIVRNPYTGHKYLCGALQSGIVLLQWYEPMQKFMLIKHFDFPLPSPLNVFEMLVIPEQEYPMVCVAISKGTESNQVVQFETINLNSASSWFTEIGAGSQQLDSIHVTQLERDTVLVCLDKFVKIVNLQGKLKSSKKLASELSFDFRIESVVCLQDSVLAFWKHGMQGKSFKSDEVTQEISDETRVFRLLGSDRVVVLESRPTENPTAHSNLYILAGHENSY
Excerpt: as §1

PAK6, sequence (Q9NQU5 whole entry, species assumed): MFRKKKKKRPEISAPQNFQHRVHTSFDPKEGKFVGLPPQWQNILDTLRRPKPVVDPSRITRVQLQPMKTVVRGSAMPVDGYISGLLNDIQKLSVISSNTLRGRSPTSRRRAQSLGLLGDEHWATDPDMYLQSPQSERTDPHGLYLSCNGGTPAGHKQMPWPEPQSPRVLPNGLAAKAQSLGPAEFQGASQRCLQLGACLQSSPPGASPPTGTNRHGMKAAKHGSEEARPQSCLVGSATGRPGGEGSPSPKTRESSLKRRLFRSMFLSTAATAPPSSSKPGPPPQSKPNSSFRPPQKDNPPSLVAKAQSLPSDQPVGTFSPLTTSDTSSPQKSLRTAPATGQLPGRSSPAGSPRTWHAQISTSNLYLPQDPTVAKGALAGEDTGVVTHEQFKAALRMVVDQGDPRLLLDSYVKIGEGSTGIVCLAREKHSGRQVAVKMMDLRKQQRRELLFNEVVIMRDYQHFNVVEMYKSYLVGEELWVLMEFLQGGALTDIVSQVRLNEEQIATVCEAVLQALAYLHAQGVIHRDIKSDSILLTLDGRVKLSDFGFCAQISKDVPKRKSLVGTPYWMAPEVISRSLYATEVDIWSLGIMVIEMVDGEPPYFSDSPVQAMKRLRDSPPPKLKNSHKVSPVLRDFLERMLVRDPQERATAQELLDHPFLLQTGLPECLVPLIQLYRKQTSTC
MST3, sequence (Q9Y6E0 whole entry, species assumed): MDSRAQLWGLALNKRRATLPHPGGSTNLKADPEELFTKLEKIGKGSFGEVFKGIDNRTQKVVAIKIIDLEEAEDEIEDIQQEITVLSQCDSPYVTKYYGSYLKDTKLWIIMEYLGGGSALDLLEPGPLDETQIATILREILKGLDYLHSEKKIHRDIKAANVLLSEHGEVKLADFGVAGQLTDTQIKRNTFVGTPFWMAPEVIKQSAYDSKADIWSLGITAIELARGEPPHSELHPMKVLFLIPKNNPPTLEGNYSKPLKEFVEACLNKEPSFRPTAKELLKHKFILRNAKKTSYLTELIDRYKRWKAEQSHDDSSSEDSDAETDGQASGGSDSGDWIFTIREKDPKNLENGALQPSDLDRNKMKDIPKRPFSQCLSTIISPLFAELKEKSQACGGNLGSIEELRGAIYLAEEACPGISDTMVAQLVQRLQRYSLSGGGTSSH
MST4, sequence (Q9P289 whole entry, species assumed): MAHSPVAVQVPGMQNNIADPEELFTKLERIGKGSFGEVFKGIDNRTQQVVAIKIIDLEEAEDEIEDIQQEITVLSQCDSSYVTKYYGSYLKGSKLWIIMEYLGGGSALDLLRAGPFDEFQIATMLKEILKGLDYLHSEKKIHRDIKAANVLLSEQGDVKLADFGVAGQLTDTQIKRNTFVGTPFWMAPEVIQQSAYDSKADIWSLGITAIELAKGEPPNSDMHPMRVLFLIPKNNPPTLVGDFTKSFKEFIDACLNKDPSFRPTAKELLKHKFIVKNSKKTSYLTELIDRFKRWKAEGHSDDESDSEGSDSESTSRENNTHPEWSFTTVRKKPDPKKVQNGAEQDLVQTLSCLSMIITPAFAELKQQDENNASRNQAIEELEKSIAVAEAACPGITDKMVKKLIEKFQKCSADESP
EPH-A4, sequence (P54764 20-986, species assumed): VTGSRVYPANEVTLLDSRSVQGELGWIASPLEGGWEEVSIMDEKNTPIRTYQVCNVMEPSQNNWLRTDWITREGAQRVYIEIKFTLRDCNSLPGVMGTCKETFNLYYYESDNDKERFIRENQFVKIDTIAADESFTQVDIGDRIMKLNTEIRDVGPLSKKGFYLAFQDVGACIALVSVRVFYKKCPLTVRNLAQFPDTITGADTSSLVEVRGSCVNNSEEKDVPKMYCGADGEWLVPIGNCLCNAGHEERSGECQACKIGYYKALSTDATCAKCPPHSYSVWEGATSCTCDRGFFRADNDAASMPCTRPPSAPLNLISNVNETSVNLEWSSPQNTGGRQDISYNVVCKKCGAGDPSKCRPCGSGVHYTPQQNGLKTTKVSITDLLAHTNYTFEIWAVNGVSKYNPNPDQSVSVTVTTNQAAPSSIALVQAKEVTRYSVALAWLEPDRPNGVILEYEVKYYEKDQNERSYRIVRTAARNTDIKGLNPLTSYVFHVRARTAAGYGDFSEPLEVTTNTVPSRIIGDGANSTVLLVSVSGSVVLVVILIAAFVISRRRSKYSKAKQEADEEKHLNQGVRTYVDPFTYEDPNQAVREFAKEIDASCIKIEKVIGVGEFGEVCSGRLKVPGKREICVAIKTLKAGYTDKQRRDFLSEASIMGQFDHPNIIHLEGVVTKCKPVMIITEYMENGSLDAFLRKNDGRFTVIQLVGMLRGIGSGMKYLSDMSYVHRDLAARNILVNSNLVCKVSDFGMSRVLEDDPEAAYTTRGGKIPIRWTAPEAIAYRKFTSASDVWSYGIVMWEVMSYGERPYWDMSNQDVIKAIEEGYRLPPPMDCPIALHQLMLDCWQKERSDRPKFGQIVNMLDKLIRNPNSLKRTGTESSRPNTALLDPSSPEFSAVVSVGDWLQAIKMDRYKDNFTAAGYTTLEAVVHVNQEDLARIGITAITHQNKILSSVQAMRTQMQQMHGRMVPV
TTBK2, sequence (Q6IQ55 whole entry, species assumed): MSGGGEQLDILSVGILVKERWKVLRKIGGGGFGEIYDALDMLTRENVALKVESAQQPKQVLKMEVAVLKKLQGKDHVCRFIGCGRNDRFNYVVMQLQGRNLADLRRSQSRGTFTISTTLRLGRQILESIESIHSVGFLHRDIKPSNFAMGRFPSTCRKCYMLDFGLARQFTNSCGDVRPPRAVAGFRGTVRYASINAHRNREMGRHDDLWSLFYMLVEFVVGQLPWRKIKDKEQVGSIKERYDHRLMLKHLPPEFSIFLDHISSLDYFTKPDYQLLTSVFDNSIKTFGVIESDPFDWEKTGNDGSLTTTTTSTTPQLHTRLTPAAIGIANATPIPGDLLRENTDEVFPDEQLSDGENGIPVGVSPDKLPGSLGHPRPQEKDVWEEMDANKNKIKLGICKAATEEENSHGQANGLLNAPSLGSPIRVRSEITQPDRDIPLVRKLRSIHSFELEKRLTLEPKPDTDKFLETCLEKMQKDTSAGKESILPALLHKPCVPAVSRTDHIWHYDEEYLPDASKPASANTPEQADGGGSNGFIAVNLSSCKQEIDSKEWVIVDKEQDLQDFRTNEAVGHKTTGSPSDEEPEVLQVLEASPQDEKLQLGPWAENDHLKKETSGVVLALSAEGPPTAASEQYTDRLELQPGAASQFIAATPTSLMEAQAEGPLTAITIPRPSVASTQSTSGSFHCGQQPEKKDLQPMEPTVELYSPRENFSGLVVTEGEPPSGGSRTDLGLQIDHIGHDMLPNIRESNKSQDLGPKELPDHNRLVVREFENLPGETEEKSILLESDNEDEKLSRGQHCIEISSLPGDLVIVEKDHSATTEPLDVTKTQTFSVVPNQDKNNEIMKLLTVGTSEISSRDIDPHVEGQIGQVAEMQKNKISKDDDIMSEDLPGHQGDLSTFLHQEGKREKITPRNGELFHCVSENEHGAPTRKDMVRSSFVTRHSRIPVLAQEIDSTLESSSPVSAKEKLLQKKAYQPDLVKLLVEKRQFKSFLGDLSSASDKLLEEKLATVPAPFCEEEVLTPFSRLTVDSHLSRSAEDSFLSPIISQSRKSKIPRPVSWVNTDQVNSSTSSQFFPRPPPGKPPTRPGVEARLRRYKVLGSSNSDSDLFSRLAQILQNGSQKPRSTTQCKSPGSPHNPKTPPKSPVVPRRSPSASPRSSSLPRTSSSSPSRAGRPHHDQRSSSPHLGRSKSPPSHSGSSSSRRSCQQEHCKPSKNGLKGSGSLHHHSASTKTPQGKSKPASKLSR

For the molecule `CC(=O)Nc1nc2cc(C)ccc2s1` [Compound 03-76], the “residual kinase activity, MST3” value at MST3 is recorded as 85. The “residual kinase activity, EPH-A4” value at EPH-A4 amounted to 91. The “residual kinase activity, PIM2” value at PIM2 is on record as 82. The “residual kinase activity, DDR2” value on DDR2 was found to be 110. Also, the “residual kinase activity, ABL” value at ABL is recorded as 82. At PAK6, the “residual kinase activity, PAK6” value is 108. Further, the “residual kinase activity, TLK1” value on TLK1 is 106. Also, the “residual kinase activity, MST4” value at MST4 is recorded as 103. Moreover, on TTBK2, the “residual kinase activity, TTBK2” value is reported as 97. Moreover, the “residual kinase activity, CDK2-Cyclin A” value on CDK2-Cyclin A amounted to 72. Further, the “residual kinase activity, NUAK1” value at NUAK1 was 58. In addition, the “residual kinase activity, MAP4K5” value on MAP4K5 is 83.

Regarding `CC(=O)Nc1nc2cc(F)ccc2s1` [Compound 03-77], the remaining activity at 100 µM on MST3 (read-out: residual kinase activity, MST3) was 87%; on EPH-A4 (read-out: residual kinase activity, EPH-A4), 100%; at PIM2 (read-out: residual kinase activity, PIM2), 62%; at DDR2 (read-out: residual kinase activity, DDR2), 101%; on ABL (read-out: residual kinase activity, ABL) it was 86%; at PAK6 (read-out: residual kinase activity, PAK6), 106%. Further, the remaining activity at 100 µM worked out at 89% on TLK1 (read-out: residual kinase activity, TLK1); 88% at MST4 (read-out: residual kinase activity, MST4); 93% at TTBK2 (read-out: residual kinase activity, TTBK2); 66% at CDK2-Cyclin A (read-out: residual kinase activity, CDK2-Cyclin A); 66% at NUAK1 (read-out: residual kinase activity, NUAK1); 65% at MAP4K5 (read-out: residual kinase activity, MAP4K5).

On to `O=C(Nc1nc2ccc(O)cc2s1)c1ccncc1` [Compound 08-42], for which the “residual kinase activity, MST3” value at MST3 was 77. In addition, at EPH-A4, the “residual kinase activity, EPH-A4” value is reported as 92. Further, the “residual kinase activity, PIM2” value at PIM2 came out at 90. Also, the “residual kinase activity, DDR2” value on DDR2 was 89. The “residual kinase activity, ABL” value at ABL is reported as 76. Also, the “residual kinase activity, PAK6” value at PAK6 is listed as 93. In addition, the “residual kinase activity, TLK1” value at TLK1 stood at 97. Moreover, the “residual kinase activity, MST4” value at MST4 worked out at 79. The “residual kinase activity, TTBK2” value at TTBK2 turned out to be 74. For the same molecule, the “residual kinase activity, CDK2-Cyclin A” value on CDK2-Cyclin A came to 72. For the same molecule, the “residual kinase activity, NUAK1” value at NUAK1 is recorded as 57. The “residual kinase activity, MAP4K5” value on MAP4K5 was 67.

Take `O=C(Nc1nc2ccc(O)cc2s1)c1cccnc1` [Compound 08-44]: the “residual kinase activity, MST3” value at MST3 came out at 76. At EPH-A4, the “residual kinase activity, EPH-A4” value turned out to be 89. Moreover, on PIM2, the “residual kinase activity, PIM2” value is given as 76. Moreover, the “residual kinase activity, DDR2” value at DDR2 was 93. Further, the “residual kinase activity, ABL” value at ABL worked out at 58. Besides, the “residual kinase activity, PAK6” value at PAK6 was determined as 94. Further, at TLK1, the “residual kinase activity, TLK1” value was 90. The “residual kinase activity, MST4” value at MST4 was 80. Besides, the “residual kinase activity, TTBK2” value on TTBK2 was 51. Further, the “residual kinase activity, CDK2-Cyclin A” value on CDK2-Cyclin A is on record as 72. Also, on NUAK1, the “residual kinase activity, NUAK1” value stood at 39. Also, the “residual kinase activity, MAP4K5” value on MAP4K5 was found to be 81.

The values are drawn from patent US10231954B2, “Neurodegenerative therapies” (LYTIX BIOPHARMA AS, priority 2014, dated 2019).
